Structures can show the parent of a compound that is named as a salt. Where two headings read alike, the source gives them in different places.
Test system: Acinetobacter baumannii ATCC17961
Assay: Antimicrobial susceptibility testing: 90% growth inhibitory concentration (IC90) determination
Type: cell-based
Details: Iso-Sensitest broth, growth by OD 600 nm over 16 h, 35±2° C.
How it was run: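 Twofold serial dilutions (e.g. 50 to 0.097 μM final) in Iso-Sensitest broth, inoculated at ~5×10^(5) CFU/ml, incubated at 35±2° C. OD600 read every 20 min over 16 h; IC90 derived from growth inhibition during logarithmic growth.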

[1] = Acinetobacter baumannii ATCC17961, read-out: ATCC 17961 IC90
[2] = Acinetobacter baumannii, ATCC17961, 16 h, read-out: ATCC 17961 IC90, Acinetobacter baumannii ATCC17961

Row | Compound | IC90 [1] | IC90 [2]
1 | COc1ccc(-c2cnc(C(=O)Nc3ccc(C(=O)N4CCN(C(=O)CCC[N+](CCCN)(CCCN)CC(=O)O)CC4)c(Cl)c3)n2C)c(F)c1F [Example C34, bis(3-aminopropyl)-(carboxymethyl)-[4-[4-[2-chloro-4-[[5-(2,3-difluoro-4-methoxy-phenyl)-1-methyl-imidazole-2-carbonyl]amino]benzoyl]piperazin-1-yl]-4-oxo-butyl]ammonium; formate] | 570 nM | 
2 | Cn1c(-c2ccc(OCF)c(F)c2F)cnc1C(=O)Nc1ccc(C(=O)N2CCN(C(=O)[C@@H]3C[C@@H](O)C[N+]3(C)C)CC2)c(Cl)c1 [Example B45, N-[3-chloro-4-[4-[(2S,4R)-4-hydroxy-1,1-dimethyl-pyrrolidin-1-ium-2-carbonyl]piperazine-1-carbonyl]phenyl]-5-[2,3-difluoro-4-(fluoromethoxy)phenyl]-1-methyl-imidazole-2-carboxamide; formate] |  | 93 nM
3 | COc1ccc(-c2cnc(C(=O)Nc3ccc(C(=O)NCCCCC[N+](C)(C)C)c(Cl)c3)n2C)c(F)c1F [Example A2, 5-[[2-Chloro-4-[[5-(2,3-difluoro-4-methoxy-phenyl)-1-methyl-imidazole-2-carbonyl]amino]benzoyl]amino]pentyl-trimethyl-ammonium;formate] | 340 nM | 
4 | Cn1c(-c2ccc(OCC#N)c(F)c2F)cnc1C(=O)Nc1ccc(C(=O)N2CCN(C(=O)[C@@H]3C[C@](C)(O)C[N+]3(C)C)CC2)c(Cl)c1 [Example B27, (2S,4S)-2-(4-(2-chloro-4-(5-(4-(cyanomethoxy)-2,3-difluorophenyl)-1-methyl-1H-imidazole-2-carboxamido)benzoyl)piperazine-1-carbonyl)-4-hydroxy-1,1,4-trimethylpyrrolidin-1-ium formate] | 170 nM | 
5 | COc1ccc(-c2cnc(C(=O)Nc3ccc(C(=O)N4CCN(C(=O)[C@@H]5[C@@H](O)CC[N+]5(C)C)CC4)c(Cl)c3)n2C)c(F)c1F [Example B36, N-[3-chloro-4-[4-[(2S,3S)-3-hydroxy-1,1-dimethyl-pyrrolidin-1-ium-2-carbonyl]piperazine-1-carbonyl]phenyl]-5-(2,3-difluoro-4-methoxy-phenyl)-1-methyl-imidazole-2-carboxamide; formate] |  | 220 nM
6 | CCc1cc(NC(=O)c2ncc(-c3ccc(OC)c(F)c3F)n2C)ccc1C(=O)NCCOCC[N+](C)(C)C [Example A5, 2-(2-(4-(5-(2,3-difluoro-4-methoxyphenyl)-1-methyl-1H-imidazole-2-carboxamido)-2-ethylbenzamido)ethoxy)-N,N,N-trimethylethan-1-aminium iodide] | 460 nM | 
7 | COc1ccc(-c2cnc(C(=O)Nc3ccc(C(=O)N4CCN(C(=O)[C@@H]5C[C@H](O)C[N+]5(C)C)CC4)c(Cl)c3)n2C)c(F)c1F [Example B34, N-[3-chloro-4-[4-[(2S,4S)-4-hydroxy-1,1-dimethyl-pyrrolidin-1-ium-2-carbonyl]piperazine-1-carbonyl]phenyl]-5-(2,3-difluoro-4-methoxy-phenyl)-1-methyl-imidazole-2-carboxamide; formate] |  | 140 nM
8 | Cn1c(-c2ccc(OCC#N)c(F)c2F)cnc1C(=O)Nc1ccc(C(=O)N2CCN(C(=O)C[N+](C)(C)C)CC2)c(Cl)c1 [Example A7, [2-[4-[2-chloro-4-[[5-[4-(cyanomethoxy)-2,3-difluoro-phenyl]-1-methyl-imidazole-2-carbonyl]amino]benzoyl]piperazin-1-yl]-2-oxo-ethyl]-trimethyl-ammonium; formate; iodide] |  | 93 nM
9 | COc1ccc(-c2cnc(C(=O)Nc3ccc(C(=O)N4CCN(C(=O)C5CC[N+](C)(C)CC5O)CC4)c(Cl)c3)n2C)c(F)c1F (centres unmarked) [Example B33, N-[3-chloro-4-[4-(3-hydroxy-1,1-dimethyl-piperidin-1-ium-4-carbonyl)piperazine-1-carbonyl]phenyl]-5-(2,3-difluoro-4-methoxy-phenyl)-1-methyl-imidazole-2-carboxamide; formate] | 130 nM | 
10 | COc1ccc(-c2cnc(C(=O)Nc3ccc(C(=O)N4CCN(C(=O)C[N+]5(C)CCOCC5)CC4)c(Cl)c3)n2C)c(F)c1F [Example C27, N-[3-chloro-4-[4-[2-(4-methyl-morpholin-4-ium-4-yl)acetyl]-piperazine-1-carbonyl]phenyl]-5-(2,3-difluoro-4-methoxy-phenyl)-1-methyl-imid-azole-2-carbox-amide; formate] | 120 nM | 
11 | COc1ccc(-c2cnc(C(=O)Nc3ccc(C(=O)N4CCN(C(=O)C5CC[N+](CC(=O)O)(CC6CNC6)CC5)CC4)c(Cl)c3)n2C)c(Cl)c1F (centres unmarked) [Example C40, 2-[1-(azetidin-3-ylmethyl)-4-[4-[2-chloro-4-[[5-(2-chloro-3-fluoro-4-methoxy-phenyl)-1-methyl-imidazole-2-carbonyl]amino]benzoyl]piperazine-1-carbonyl]piperidin-1-ium-1-yl]acetic acid; formate] |  | 540 nM
12 | COc1ccc(-c2cnc(C(=O)Nc3ccc(C(=O)N4CCN(C(=O)[C@@H]5C[C@H](O)CC[N+]5(C)C)CC4)c(Cl)c3)n2C)c(F)c1F [Example B38, N-[3-chloro-4-[4-[(2S,4R)-4-hydroxy-1,1-dimethyl-piperidin-1-ium-2-carbonyl]piperazine-1-carbonyl]phenyl]-5-(2,3-difluoro-4-methoxy-phenyl)-1-methyl-imidazole-2-carboxamide; formate] |  | 180 nM
13 | Cn1c(-c2ccc(OC(F)F)c(F)c2Cl)cnc1C(=O)Nc1ccc(C(=O)N2CCN(C(=O)[C@@H]3C[C@@H](O)C[N+]3(C)C)CC2)c(Cl)c1 [Example B53] | 91 nM | 
14 | COc1ccc(-c2cnc(C(=O)Nc3ccc(C(=O)N4CCN(C(=O)[C@@H]5C[C@@H](O)C[N+]5(C)C)CC4)c(Cl)c3)n2C)c(C(F)F)c1F [Example B40, N-[3-chloro-4-[4-[(2S,4R)-4-hydroxy-1,1-dimethyl-pyrrolidin-1-ium-2-carbonyl]piperazine-1-carbonyl]phenyl]-5-[2-(difluoromethyl)-3-fluoro-4-methoxy-phenyl]-1-methyl-imidazole-2-carboxamide; formate] |  | 260 nM
15 | COc1ccc(-c2cnc(C(=O)Nc3ccc(C(=O)NCc4cn(CC(N)=O)[n+](C)c4)c(Cl)c3)n2C)c(F)c1F [Example A23, N-[4-[1-(2-amino-2-oxo-ethyl)-2-methyl-pyrazol-2-ium-4-yl]methylcarbamoyl]-3-chloro-phenyl]-5-(2,3-difluoro-4-methoxy-phenyl)-1-methyl-imidazole-2-carboxamide; formate] | 400 nM | 
16 | COc1ccc(-c2cnc(C(=O)Nc3ccc(C(=O)N4C[C@H]5CN(C(=O)C[N+](C)(C)C)C[C@H]5C4)c(Cl)c3)n2C)c(F)c1F [Example B19, [2-[(3aS,6aR)-5-[2-chloro-4-[[5-(2,3-difluoro-4-methoxy-phenyl)-1-methyl-imidazole-2-carbonyl]amino]benzoyl]-1,3,3a,4,6,6a-hexahydropyrrolo[3,4-c]pyrrol-2-yl]-2-oxo-ethyl]-trimethyl-ammonium; formate] | 310 nM | 
17 | Cn1c(-c2ccc(OC(F)F)c(F)c2F)cnc1C(=O)Nc1ccc(C(=O)N2CCN(C(=O)C[N+]3(C)CCNCC3)CC2)c(Cl)c1 [Example C24, N-[3-chloro-4-[4-[2-(1-methylpiperazin-1-ium-1-yl)acetyl]piperazine-1-carbonyl]phenyl]-5-[4-(difluoromethoxy)-2,3-difluoro-phenyl]-1-methyl-imidazole-2-carboxamide;2,2,2-trifluoroacetate;2,2,2-trifluoroacetic acid] |  | 63 nM
18 | COc1ccc(-c2cnc(C(=O)Nc3ccc(C(=O)N4CCN(C(=O)N5CC[N+](CCCN)(CC(=O)O)CC5)CC4)c(Cl)c3)n2C)c(F)c1F [Example C38, 2-[1-(3-aminopropyl)-4-[4-[2-chloro-4-[[5-(2,3-difluoro-4-methoxy-phenyl)-1-methyl-imidazole-2-carbonyl]amino]benzoyl]piperazine-1-carbonyl]piperazin-1-ium-1-yl]acetic acid formate] |  | 730 nM
19 | CCc1cc(NC(=O)c2ncc(-c3ccc(OC(F)F)c(F)c3F)n2C)ccc1C(=O)N1CCN(C(=O)C2CC[N+](CC(N)=O)(CC3CNC3)CC2)CC1 (centres unmarked) [Example C21] | 220 nM | 
20 | CCc1cc(NC(=O)c2ncc(-c3ccc(OC(F)F)c(F)c3F)n2C)ccc1C(=O)N1CCN(C(=O)C2CC[N+](C)(CC3CNC3)CC2)CC1 (centres unmarked) [Example C19] | 270 nM | 
21 | Cn1c(-c2ccc(OC(F)F)c(F)c2Cl)cnc1C(=O)Nc1ccc(C(=O)N2CCN(C(=O)C3CC[N+](C)(CC(N)=O)CC3)CC2)c(Cl)c1 (centres unmarked) [Example C1, N-[4-[4-[1-(2-Amino-2-oxo-ethyl)-1-methyl-piperidin-1-ium-4-carbonyl]piperazine-1-carbonyl]-3-chloro-phenyl]-5-[2-chloro-4-(difluoromethoxy)-3-fluoro-phenyl]-1-methyl-imidazole-2-carboxamide;formate] | 23 nM | 
22 | Cn1c(-c2ccc(OC(F)F)c(F)c2F)cnc1C(=O)Nc1ccc(C(=O)N2CCN(C(=O)C3CC[N+](C)(CC4CCNC4)CC3)CC2)c(Cl)c1 (centres unmarked) [Example C14, N-[3-chloro-4-[4-[1-methyl-1-(pyrrolidin-3-yl-methyl)piperidin-1-ium-4-carbon-yl]piperazine-1-carbonyl]phenyl]-5-[4-(difluoro-methoxy)-2,3-difluoro-phenyl]-1-methyl-imid-azole-2-carbox-amide; formic acid; formate] | 49 nM | 
23 | COc1ccc(-c2cnc(C(=O)Nc3ccc(C(=O)NCc4cn(CCC#N)[n+](C)c4)c(Cl)c3)n2C)c(F)c1F [Example A22, N-[3-chloro-4-[1-(2-cyanoethyl)-2-methyl-pyrazol-2-ium-4-yl]methylcarbamoyl]phenyl]-5-(2,3-difluoro-4-methoxy-phenyl)-1-methyl-imidazole-2-carboxamide; formate] | 390 nM | 

Reference: patent US20240376073A1 (Hoffmann-La Roche Inc., priority 2021, published 2024)
